One experiment deals with T1, PI3Kγ (Homo sapiens, UniProt P48736).
T1 construct: purchased Reaction Biology Corporation
The experiment can be described thus: PI3Kγ isoform profiling (PI3Kδ protocol). It is filed as biochemical. The settings on record: for PI3Kγ @ 0.3 μM (% Inh): 0.3 μM compound; for IC50: 10 dose IC50. From the text:
PI3Kδ assay: The PIP3 product is detected by displacement of biotin-PIP3 from an energy transfer complex consisting of Europium labeled anti-GST monoclonal antibody, a GST-tagged pleckstrin homology (PH) domain, biotinylated PIP3 and Streptavidin-Allophycocyanin (APC). Excitation of Europium in the complex results in an energy transfer to the APC and a fluorescent emission at 665 nm. The PIP3 product formed by PI 3-Kinase(h) activity displaces biotin-PIP3 from the complex resulting in a loss of energy transfer and thus a decrease in signal. This is a 3-step reaction: First, the kinase reaction with PIP2 substrate is carried out in the presence of ATP (10 μM), and the reaction is quenched with stop Solution, and then finally detect by adding Detection Mixture followed by incubation (10 min). Reaction procedure: 1) Prepare substrate in freshly prepared Reaction Buffer. 2) Deliver kinase into the substrate solution and gently mix. 3) Deliver compounds in 100% DMSO (1 μM) into the kinase reaction mixture by Acoustic technology (Echo550; nanoliter range), incubate for 10 min at RT. 4) Deliver ATP into the reaction mixture to initiate the reaction. 5) Incubate for 30 min at 30° C. 6) Quench the reaction with Stop Solution. 7) Add Detection Mixture, and incubate for overnight. 8) Measure HTRF: Ex=320 nm, ratio of Em=615 nm and Em=665 nm. The emission ratio is converted into μM PIP3 production based on PIP3 standard curves. The nonlinear regression to obtain the standard curve and IC50 values are performed using Graphpad Prism software. Assay Buffer: HEPES 50 mM (pH7.0), NaN3 0.02%, BSA 0.01%, Orthovanadate 0.1 mM, 1% DMSO. Detection buffer: HEPES 10 mM (pH7.0), BSA 0.02%, KF 0.16 M, EDTA 4 mM. Substrate: 10 μM PIP2 substrate (PI(4,5)P2).
Compounds of the invention were profiled in a 10 dose IC50 panel against PI3Kα, PI3Kβ, and PI3Kγ kinases, provided by Reaction Biology Corporation, applied to the PI3Kδ protocol provided in Example B1.

A further experiment has as its target T2, BMX/ETK (Homo sapiens, UniProt P51813).
T2 construct: purchased Reaction Biology Corporation
T2 sequence (P51813 1-675): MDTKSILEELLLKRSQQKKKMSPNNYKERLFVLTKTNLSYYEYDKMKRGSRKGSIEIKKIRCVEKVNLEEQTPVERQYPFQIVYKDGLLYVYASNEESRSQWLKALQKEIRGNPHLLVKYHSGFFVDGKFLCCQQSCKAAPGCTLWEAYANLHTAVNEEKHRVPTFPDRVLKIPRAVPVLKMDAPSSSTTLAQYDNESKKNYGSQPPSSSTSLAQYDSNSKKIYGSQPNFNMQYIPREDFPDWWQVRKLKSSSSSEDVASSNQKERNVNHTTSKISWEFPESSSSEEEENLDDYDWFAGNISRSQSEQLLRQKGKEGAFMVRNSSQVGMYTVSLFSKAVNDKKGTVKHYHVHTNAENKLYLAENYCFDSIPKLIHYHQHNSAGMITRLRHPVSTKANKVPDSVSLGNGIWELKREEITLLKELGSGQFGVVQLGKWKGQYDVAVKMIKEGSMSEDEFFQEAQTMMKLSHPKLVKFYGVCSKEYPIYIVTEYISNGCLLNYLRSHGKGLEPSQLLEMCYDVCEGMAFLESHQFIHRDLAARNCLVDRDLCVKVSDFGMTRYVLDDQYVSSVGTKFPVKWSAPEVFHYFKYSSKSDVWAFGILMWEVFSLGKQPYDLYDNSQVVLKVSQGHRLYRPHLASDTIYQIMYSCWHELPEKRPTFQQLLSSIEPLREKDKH
The experiment is described as follows: BMX/ETK kinase profiling (BTK protocol). Format: biochemical. The note with it: for BMX/ETK @ 0.3 μM (% Inh): 0.3 μM compound; for IC50: 10 dose IC50. On the procedure:
BTK assay: In vitro profiling protein kinases was performed using the “HotSpot” assay platform. Briefly, specific kinase/substrate pairs along with required cofactors were prepared in reaction buffer. Compounds were prepared as 10 mM stock solutions in DMSO. Compounds were delivered into the reaction, followed 15-20 minutes later by addition of a mixture of ATP (Sigma, St. Louis Mo.) and ^33P ATP (Perkin Elmer, Waltham Mass.) to a final concentration of 10 μM. Reactions were carried out at RT for 120 min, followed by spotting of the reactions onto P81 ion exchange filter paper (Whatman Inc., Piscataway, N.J.). Unbound phosphate was removed by extensive washing of filters in 0.75% Phosphoric acid. […] IC50 values and curve fits were obtained using Prism (GraphPad Software). Buffer Conditions: 20 mM Hepes (pH 7.5), 10 mM MgCl2, 1 mM EGTA, 0.02% Brij35, 0.02 mg/mL BSA, 0.1 mM Na3VO4, 2 mM DTT, 1% DMSO.
Compounds of the invention were profiled in a 10 dose IC50 panel against BMX/ETK, ITK and TEC kinases, provided by Reaction Biology Corporation, applied to the BTK protocol provided in Example B1.

In general, IC50 refers to the point on the concentration scale where inhibition reaches its midpoint. Read a low IC50 as inhibition by little substance.

T1 sequence (P48736 whole entry): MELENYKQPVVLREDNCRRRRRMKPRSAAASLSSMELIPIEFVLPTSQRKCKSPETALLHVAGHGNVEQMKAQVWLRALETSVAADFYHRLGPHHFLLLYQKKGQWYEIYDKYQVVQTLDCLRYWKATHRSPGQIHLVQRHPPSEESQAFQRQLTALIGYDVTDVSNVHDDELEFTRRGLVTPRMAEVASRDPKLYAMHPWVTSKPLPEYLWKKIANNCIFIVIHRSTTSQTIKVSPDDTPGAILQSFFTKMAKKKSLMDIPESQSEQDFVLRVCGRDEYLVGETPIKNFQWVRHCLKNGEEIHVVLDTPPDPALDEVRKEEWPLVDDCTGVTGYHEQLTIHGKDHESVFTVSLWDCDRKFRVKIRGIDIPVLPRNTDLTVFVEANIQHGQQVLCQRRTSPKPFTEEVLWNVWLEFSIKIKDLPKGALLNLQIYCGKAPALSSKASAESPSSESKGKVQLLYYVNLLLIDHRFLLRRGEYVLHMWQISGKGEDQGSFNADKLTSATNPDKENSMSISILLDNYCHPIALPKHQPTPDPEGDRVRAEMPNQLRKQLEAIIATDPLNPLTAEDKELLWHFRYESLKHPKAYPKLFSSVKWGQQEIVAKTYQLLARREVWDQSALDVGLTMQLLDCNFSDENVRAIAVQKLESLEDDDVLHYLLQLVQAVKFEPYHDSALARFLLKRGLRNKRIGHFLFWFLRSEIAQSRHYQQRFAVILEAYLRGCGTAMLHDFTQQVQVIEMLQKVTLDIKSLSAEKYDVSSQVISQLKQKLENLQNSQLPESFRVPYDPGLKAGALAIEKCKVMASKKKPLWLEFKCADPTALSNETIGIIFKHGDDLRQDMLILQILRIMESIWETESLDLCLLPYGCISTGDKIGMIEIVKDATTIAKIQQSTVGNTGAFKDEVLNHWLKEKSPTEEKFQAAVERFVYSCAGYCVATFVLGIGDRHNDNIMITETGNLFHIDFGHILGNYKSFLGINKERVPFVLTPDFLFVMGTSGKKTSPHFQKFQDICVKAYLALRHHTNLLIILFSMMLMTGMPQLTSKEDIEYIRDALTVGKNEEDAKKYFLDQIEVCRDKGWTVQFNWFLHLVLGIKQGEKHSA

Regarding `Nc1ncnc2c1c(-c1ccc(F)c(O)c1)nn2C1CCc2ccccc2C1` (racemic) [Compound No. 26, 5-(4-amino-1-(1,2,3,4-tetrahydronaphthalen-2-yl)-1H-pyrazolo[3,4-d]pyrimidin-3-yl)-2-fluorophenol], on PI3Kγ, the “PI3Kγ @ 0.3 μM (% Inh)” value is 38.75 % Inh. The “BMX/ETK @ 0.3 μM (% Inh)” value at BMX/ETK was found to be 92.36 % Inh.
With `Nc1ncnc2c1c(-c1ccc3cc[nH]c3c1)nn2C1CCc2ccccc2C1` (racemic) [compound 18, 3-(1H-indol-6-yl)-1-(1,2,3,4-tetrahydronaphthalen-2-yl)-1H-pyrazolo[3,4-d]pyrimidin-4-amine], the “PI3Kγ @ 0.3 μM (% Inh)” value on PI3Kγ is 19.7 % Inh. In addition, the “BMX/ETK @ 0.3 μM (% Inh)” value at BMX/ETK came out at 73.26 % Inh.
On to `Nc1ncnc2c1c(-c1cc(O)cc(F)c1)nn2C1CCc2ccccc2C1` (single isomer, unassigned) [6a, 3-(4-amino-1-(1,2,3,4-tetrahydronaphthalen-2-yl)-1H-pyrazolo[3,4-d]pyrimidin-3-yl)-5-fluorophenol], for which, at PI3Kγ (0.3 µM), the “PI3Kγ @ 0.3 μM (% Inh)” value is on record as 38.58 % Inh. In addition, on BMX/ETK (0.3 µM), the “BMX/ETK @ 0.3 μM (% Inh)” value is 84.79 % Inh.
The corresponding values for `Nc1ncnc2c1c(-c1cc(O)cc(F)c1)nn2C1CCc2ccccc2C1` (single isomer, unassigned) [6b, 3-(4-amino-1-(1,2,3,4-tetrahydronaphthalen-2-yl)-1H-pyrazolo[3,4-d]pyrimidin-3-yl)-5-fluorophenol] are 45.57 % Inh and 71.49 % Inh.
For `C=CC(=O)N1CC(n2nc(-c3cc(O)cc(F)c3)c3c(N)ncnc32)Cc2cc(C)ccc21` (single isomer, unassigned) [31b, 1-(3-(4-amino-3-(3-fluoro-5-hydroxyphenyl)-1H-pyrazolo[3,4-d]pyrimidin-1-yl)-6-methyl-3,4-dihydroquinolin-1(2H)-yl)prop-2-en-1-one], the “PI3Kγ @ 0.3 μM (% Inh)” value on PI3Kγ is listed as 14.76 % Inh. Moreover, the “BMX/ETK @ 0.3 μM (% Inh)” value on BMX/ETK amounted to 88.04 % Inh.
On to `Nc1ncnc2c1c(-c1ccc(F)c(O)c1)nn2C1CCc2ccccc2C1` (single isomer, unassigned) [Compound No. 26a, 5-(4-amino-1-(1,2,3,4-tetrahydronaphthalen-2-yl)-1H-pyrazolo[3,4-d]pyrimidin-3-yl)-2-fluorophenol], for which the IC50 against PI3Kγ amounted to 405 nM; at BMX/ETK, 3.1 nM.
The corresponding values for `Nc1ncnc2c1c(-c1ccc(F)c(O)c1)nn2C1CCc2ccccc2C1` (single isomer, unassigned) [Compound No. 26b, 5-(4-amino-1-(1,2,3,4-tetrahydronaphthalen-2-yl)-1H-pyrazolo[3,4-d]pyrimidin-3-yl)-2-fluorophenol] are 455 nM and 6.2 nM.
On the same counts, the results for `Nc1ncnc2c1c(-c1ccc(F)c(O)c1)nn2C1Cc2ccccc2C1` [Compound No. 29, 5-(4-amino-1-indan-2-yl-pyrazolo[3,4-d]pyrimidin-3-yl)-2-fluoro-phenol] are 196 nM and 0.8 nM.
Consider `COc1cc(-c2nn(C3Cc4ccccc4C3)c3ncnc(N)c23)ccc1C` [Compound No. 49, 1-(2,3-dihydro-1H-inden-2-yl)-3-(3-methoxy-4-methylphenyl)-1H-pyrazolo[3,4-d]pyrimidin-4-amine], for which the “PI3Kγ @ 0.3 μM (% Inh)” value on PI3Kγ is 30.41 % Inh. The “BMX/ETK @ 0.3 μM (% Inh)” value on BMX/ETK worked out at 75.85 % Inh.
The corresponding values for `Nc1ncnc2c1c(-c1ccc(Cl)c(O)c1)nn2C1Cc2ccccc2C1` [Compound No. 56, 5-[4-amino-1-(2,3-dihydro-1H-inden-2-yl)-1H-pyrazolo[3,4-d]pyrimidin-3-yl]-2-chlorophenol] are 62.17 % Inh and 86.63 % Inh.
On the same counts, the results for `Nc1ncnc2c1c(-c1cc(O)cc(F)c1)cn2C1Cc2ccccc2C1` [Compound No. 63, 3-[4-amino-7-(2,3-dihydro-1H-inden-2-yl)-7H-pyrrolo[2,3-d]pyrimidin-5-yl]-5-fluorophenol] are 33.44 % Inh and 94.69 % Inh.
On the same counts, the results for `COc1ccc(-c2nn(C3Cc4ccccc4C3)c3ncnc(N)c23)cc1O` [Compound No. 68, 5-[4-amino-1-(2,3-dihydro-1H-inden-2-yl)-1H-pyrazolo[3,4-d]pyrimidin-3-yl]-2-methoxyphenol] are 51.6 % Inh and 78.92 % Inh.
For the compound `Nc1ncnc2c1c(-c1cc(O)c(F)c(F)c1)nn2C1Cc2ccccc2C1` [Compound No. 81, 5-[4-amino-1-(2,3-dihydro-1H-inden-2-yl)-1H-pyrazolo[3,4-d]pyrimidin-3-yl]-2,3-difluorophenol], the “PI3Kγ @ 0.3 μM (% Inh)” value on PI3Kγ came to 68.03 % Inh. Further, on BMX/ETK, the “BMX/ETK @ 0.3 μM (% Inh)” value is 85.6 % Inh.
On the same counts, the results for `Nc1ncnc2c1c(-c1cc(F)c3c(c1)NCCO3)nn2C1Cc2ccccc2C1` [Compound No. 84, 1-(2,3-dihydro-1H-inden-2-yl)-3-(8-fluoro-3,4-dihydro-2H-1,4-benzoxazin-6-yl)-1H-pyrazolo[3,4-d]pyrimidin-4-amine] are 55.61 % Inh and 62.51 % Inh.
On the same counts, the results for `Nc1ncnc2c1c(-c1ccc(Cl)c(O)c1)cn2C1Cc2ccccc2C1` [Compound No. 93, 5-[4-amino-7-(2,3-dihydro-1H-inden-2-yl)-7H-pyrrolo[2,3-d]pyrimidin-5-yl]-2-chlorophenol] are 72.89 % Inh and 110.06 % Inh.
On the same counts, the results for `Nc1ncnc2c1c(-c1ccc(Cl)c(O)c1F)nn2C1Cc2ccccc2C1` [Compound No. 100, 3-[4-amino-1-(2,3-dihydro-1H-inden-2-yl)-1H-pyrazolo[3,4-d]pyrimidin-3-yl]-6-chloro-2-fluorophenol] are 57.52 % Inh and 107.37 % Inh.
For `Nc1ncnc2c1c(-c1cc(O)c(F)c(F)c1)cn2C1Cc2ccccc2C1` [Compound No. 101, 5-[4-amino-7-(2,3-dihydro-1H-inden-2-yl)-7H-pyrrolo[2,3-d]pyrimidin-5-yl]-2,3-difluorophenol], at PI3Kγ, the “PI3Kγ @ 0.3 μM (% Inh)” value came to 57.6 % Inh. Also, the “BMX/ETK @ 0.3 μM (% Inh)” value on BMX/ETK was 97.14 % Inh.
The corresponding values for `Nc1ncnc2c1c(-c1cc(O)c(F)c(C(F)(F)F)c1)nn2C1Cc2ccccc2C1` [Compound No. 102, 5-[4-amino-1-(2,3-dihydro-1H-inden-2-yl)-1H-pyrazolo[3,4-d]pyrimidin-3-yl]-2-fluoro-3-(trifluoromethyl)phenol] are 57.81 % Inh and 4.6 % Inh.
Take `Nc1ncnc2c1c(-c1ccc(Br)c(O)c1)nn2C1Cc2ccccc2C1` [compound 2, 5-(4-amino-1-(2,3-dihydro-1H-inden-2-yl)-1H-pyrazolo[3,4-d]pyrimidin-3-yl)-2-bromophenol]: on BMX/ETK, the half-maximal inhibitory concentration (IC50) amounted to 7.7 nM.

Values taken from patent US20210317140A1, “Heterocyclic Compounds and Methods of Use” (MEDIVATION TECHNOLOGIES, INC, priority 2013, published 2021).
